# Paper PMC9324693, “α-Hydroxylactams as Efficient Entries to Diversely Functionalized Ferrociphenols: Synthesis and Antiproliferative Activity Studies” (Molecules, 2022)
# Columns and labels:
# [1] = tested on: MDA-MB-231; test: MTT cell viability assay on MDA-MB-231 cells; assay type: cell-based; settings: for EC50: 96-well plates, 4000 cells/well, viability after 3 days by MTT, mean ± SD of three independent experiments
# Description: (§1) A prerequisite to further bioorthogonal modifications is to preserve the biological properties of ferrociphenol compounds. Then, the impact of some of the grafted substituents on the antiproliferative activity was examined by a classical MTT cell viability assay on the two breast cancer cell lines MDA-MB-231 and MCF-7 as well as on the non-tumorigenic cell line hTERT-RPE1 (Table 3). The two cancer cell lines were chosen since most of the previously reported data on ferrocifens were carried out on these cellular models. The experimental protocol is described in Section 3.14., and it is important to emphasize here that the EC50 values reported in Table 3 are not to be compared to the IC50 values reported in the literature, since the assay conditions are different. For this reason, we included as a reference the ferrocenyl derivative of hydroxytamoxifen Fc-OH-TAM-3 [8] that is known to be cytotoxic to numerous cell lines. […] This feature was taken into account when performing data fitting.
# (§2) MDA-MB-231, MCF-7, and hTERT-RPE1 cells were obtained from ATCC. Cells were maintained in a monolayer culture in DMEM with phenol red with Glutamax I (MDA-MB-231) or 2 mM L-glutamine (MCF-7) or 15 mM HEPES (hTERT-RPE1) supplemented with 10% FBS at 37 °C in a humidified atmosphere and 5% CO2. Stock solutions of the complexes were prepared in DMSO. Cells were seeded in 96-well plates at a density of 4000 cells/well. After overnight attachment, a dilution series of the compounds were added in the medium, and cells were incubated for a further 72 h. […] Cell viability was evaluated by using a colorimetric method based on the tetrazolium salt MTT [3-(4,5-dimethylthiazol-2-yl)-2,5-diphenyltetrazolium bromide], which is reduced by viable cells to yield purple formazan crystals. After 72 h, the medium was removed and the cells were incubated with MTT solution in PBS (10 μL of a 5 mg/mL) for 2–3 h of incubation. The formed purple formazan crystals were dissolved in 100 μL DMSO by thorough shaking, and the absorbance at 560 nm was read using a microplate reader (FLUOstar OPTIMA, BMG Labtech, Ortenberg, Germany). Each test was performed with at least three replicates and repeated at least three times. EC50 were determined using Dr Fit software.
# [2] = tested on: MCF-7; test: MTT cell viability assay on MCF-7 cells; assay type: cell-based; settings: for EC50: 96-well plates, 4000 cells/well, viability after 3 days by MTT, mean ± SD of three independent experiments
# Description: as §1, §2
# [3] = tested on: hTERT-RPE1; test: MTT cell viability assay on non-tumorigenic hTERT-RPE1 cells; assay type: cell-based; settings: for EC50: 96-well plates, 4000 cells/well, viability after 3 days by MTT, mean ± SD of three independent experiments; for toxicity on hTERT-RPE1 compared with MCF-7: comparison of EC50 values
# Description: as §1, §2
# [4] = target: T1, HRP (Armoracia rusticana, UniProt P00433); test: Enzymatic oxidation with HRP and H2O2; assay type: biochemical; settings: fourfold molar excess of H2O2, HRP, pH 8.1; λmax 571–572 nm
# T1 construct: purchased
# T1 sequence (P00433 31-338 limits assumed): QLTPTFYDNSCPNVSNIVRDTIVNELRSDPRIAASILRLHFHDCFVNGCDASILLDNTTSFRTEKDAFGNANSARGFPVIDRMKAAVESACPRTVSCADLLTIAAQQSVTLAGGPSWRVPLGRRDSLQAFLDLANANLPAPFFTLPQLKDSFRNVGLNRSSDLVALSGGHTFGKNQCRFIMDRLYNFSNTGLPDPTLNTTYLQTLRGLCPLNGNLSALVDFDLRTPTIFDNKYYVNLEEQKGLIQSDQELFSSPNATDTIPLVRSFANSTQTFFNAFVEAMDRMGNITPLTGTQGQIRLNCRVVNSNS
# Description: Enzymatic oxidation of 19, 20, 22, 23, and 25 was performed with a fourfold molar excess of H2O2 in the presence of HRP at pH 8.1. […] This behavior is reminiscent of that previously observed for a structurally related diphenol complex, which lets us conclude that enzymatic oxidation of 19, 20, 22, 23, and 25 affords the corresponding quinone methide in the anionic phenolate form, regardless of the substituent grafted from the phthalimide ring.
# Figure S51. UV-vis spectra of compounds 19, 20, 22, 23 and 25 (50 µM) treated by HRP (46 nM) and H2O2 (200 µM) in 0.2 M TRIS buffer pH 8.1. Conversion to the phenolate form of the quinone methides is assessed by the appearance of the characteristic bands at ca. 570 and 360 nm. […]
# [5] = tested on: glioblastoma cell model U87; parameters: method as in PMID 26136201; settings: cited from earlier work
# [6] = tested on: triple negative breast cancer cell line MDA-MB-231; settings: measured after 5 days of incubation (stated for B and C); cited from earlier work
# [7] = Solubility tests by shaking suspensions and RP-HPLC analysis of supernatants; assay type: physicochemical; settings: for solubility in aqueous medium: water or PBS, shaken overnight at room temperature, RP-HPLC of supernatants, theoretical concentration 1 mM
# Description: Due to water insolubility being a known issue for the ferrocidiphenol family, we exploited this strategy to attach substituents that could increase their solubility in a biologically relevant context. Thus, attaching short and monodisperse PEG chains seemed interesting. The tetraethylene glycol chain was readily grafted to A to afford 22 in 79% yield at room temperature in less than 3 h.
# Figure S50: Solubility studies by RP-HPLC analysis of compounds 18 (A), 20 (B) and […]
# A given amount of compounds 18, 20 and 22 was weighted and suspended in a given volume of tested solvent (DMSO, MeOH, PBS and H2O) to reach a theoretical concentration of 1 mM. Suspensions were sonicated for 1 min and shaken at R.T. for 18 h. The resulting solutions were filtrated (pore size 0.2 µm) and diluted to 100 µM in MeCN (for the solutions in organic solvents). HPLC analysis was performed on Nucleodur C18 column, (100 Å , 5 µm, 4.6 x 150 mm, Macherey-Nagel) using […]
# (also on this page, place not known: MeOH DMSO PBS – H2O A PBS MeOH DMSO PBS B H2O MeOH DMSO PBS – H2O C) […]
# [8] = tested on: NCI-60 panel of human cancer cells; parameters: method as in PMID 30977944; settings: read-out: mean GI50 (half maximal growth inhibition); cited from earlier work
EC50 [1] [µM],EC50 [2] [µM],enzymatic oxidation to quinone methide [4],Molecule,EC50 [3] [µM],toxicity on hTERT-RPE1 compared with MCF-7 [3],solubility in aqueous medium [7],further results
18 ± 0.4,4.7 ± 1.4,rapidly converted to bright pink adducts,"2,3-Dihydro-3-(2-methoxycarbonylethylthio)-2-[4-ferrocenyl-5,5-bis-(4-hydroxyphenyl)-ent-4-enyl]-1H-isoindol-1-one [Compound 25]",9.1 ± 0.4,twice more toxic,–,–
> 50,> 50,–,"O=C1c2ccccc2C(=O)N1CCCC[c-]1cccc1.[Fe+2].c1cc[cH-]c1 [Compound 3h, N-(4-ferrocenylbutyl) Phthalimide]",> 50,–,–,"inhibition of cell growth, MDA-MB-231 ([1]; MTT, 72 h): did not inhibit cell growth; inhibition of cell growth, MCF-7 ([2]; MTT, 72 h): did not inhibit cell growth; inhibition of cell growth, hTERT-RPE1 ([3]; MTT, 72 h): did not inhibit cell growth"
6.3 ± 2.1,10.6 ± 0.3,rapidly converted to bright pink adducts,"O=C1c2ccccc2C(CCO)N1CCCC(=C(c1ccc(O)cc1)c1ccc(O)cc1)[c-]1cccc1.[Fe+2].c1cc[cH-]c1 (stereo not drawn) [Compound 20, 2,3-Dihydro-3-(2-hydroxyethyl)-2-[4-ferrocenyl-5,5-bis-(4-hydroxyphenyl)-pent-4-enyl]-1H-isoindol-1-one]",5 ± 0.2,twice more toxic,none of these compounds were soluble in aqueous medium,"solubility in organic solvents [7]: poorly soluble in organic solvents, except for DMSO"
8.8 ± 2.5,29.9 ± 1.3,rapidly converted to bright pink adducts,"O=C1c2ccccc2C(OCCOCCOCCOCCO)N1CCCC(=C(c1ccc(O)cc1)c1ccc(O)cc1)[c-]1cccc1.[Fe+2].c1cc[cH-]c1 (stereo not drawn) [Compound 22, O-{2,3-Dihydro-2-[4-ferrocenyl-5,5-bis-(4-hydroxyphenyl)-pent-4-enyl]-1H-isoindol-1-one-3-yl}-12-hydroxy-1,4,7,10-tetraoxadodecane]",24.7 ± 1.1,similar,none of these compounds were soluble in aqueous medium,–
2.4 ± 0.5,4.2 ± 0.7,rapidly converted to bright pink adducts,"C#CCCCC1c2ccccc2C(=O)N1CCCC(=C(c1ccc(O)cc1)c1ccc(O)cc1)[c-]1cccc1.[Fe+2].c1cc[cH-]c1 (stereo not drawn) [Compound 23, 2,3-Dihydro-3-(pent-4-ynyl)-2-[4-ferrocenyl-5,5-bis-(4-hydroxyphenyl)-pent-4-enyl]-1H-isoindol-1-one]",12.9 ± 3.3,–,–,selectivity: less toxic on hTERT-RPE1 with respect to MCF-7 ([3]; ratio of EC50 values): 3 fold

# Continued, molecule first:
Molecule,EC50 [1] [µM],EC50 [2] [µM],enzymatic oxidation to quinone methide [4],EC50 [3] [µM],toxicity on hTERT-RPE1 compared with MCF-7 [3],solubility in aqueous medium [7],further results
O=C1c2ccccc2C(=O)N1CCCC(=C(c1ccc(O)cc1)c1ccc(O)cc1)[c-]1cccc1.[Fe+2].c1cc[cH-]c1 [A],–,–,–,–,–,–,IC50 [5]: 0.018 µM; IC50 [6]: 0.145 µM
"O=C1c2ccccc2C(CCCCCCO)N1CCCC(=C(c1ccc(O)cc1)c1ccc(O)cc1)[c-]1cccc1.[Fe+2].c1cc[cH-]c1 (stereo not drawn) [Compound 21, 2,3-Dihydro-3-(6-hydroxyhexyl)-2-[4-ferrocenyl-5,5-bis-(4-hydroxyphenyl)-pent-4-enyl]-1H-isoindol-1-one]",–,–,–,–,–,–,solubility in organic solvents [7]: improved the solubility in organic solvents including DCM
"COCCOCCOCCOCCOCCOCCOCCSC1c2ccccc2C(=O)N1CCCC(=C(c1ccc(O)cc1)c1ccc(O)cc1)[c-]1cccc1.[Fe+2].c1cc[cH-]c1 (stereo not drawn) [Compound 27, S-{2,3-Dihydro-2-[4-ferrocenyl-5,5-bis-(4-hydroxyphenyl)-pent-4-enyl]-1H-isoindol-1-one-3-yl}-1-thia-4,7,10,13,16,19,22-heptaoxatricosane]",–,–,–,–,–,none of these compounds were soluble in aqueous medium,–
O=C1CCC(=O)N1CCCC(=C(c1ccc(O)cc1)c1ccc(O)cc1)[c-]1cccc1.[Fe+2].c1cc[cH-]c1 [Compound B],–,–,–,–,–,–,IC50 [6]: 0.035 µM; GI50 [8]: ~0.1 µM
"O-{2,3-Dihydro-2-[4-ferrocenyl-5,5-bis-(4-hydroxyphenyl)-pent-4-enyl]-1H-isoindol-1-one-3-yl}-24-azido-1,4,7,10,13,16,19,22-octaoxatetracosane [Compound 24]",–,–,–,–,–,none of these compounds were soluble in aqueous medium,–
